Measurements published in patent US12679825B2, “Crystalline and amorphous forms of a δ-opioid modulator” (Trevena, Inc., priority 2020, dated 2026).
Converted amounts (≈) assume the structure as drawn. “Also recorded” adds a separate entry of the source. Like-named read-outs stand apart in the source and are kept apart here.

What was measured:
Type in all cases: physicochemical
[1] = Aqueous solubility study (slurry in deionized water, HPLC); parameters: key to XRPD of residual solid, Wet / XRPD of residual solid, Dry: CRY: Crystalline
Method: The aqueous solubility of the crystalline Form I was assessed using the following procedure: • Approximately 10 mg of the dried material was slurried in deionized water (100 μL) at 20° C. with stirring. • Further aliquots of water (50 μL) were added until a mobile slurry was obtained. A total of 600 μL was used. • The slurry was stirred at 20° C. for 24 h then separated by centrifugation (0.22 μm nylon filter). • The residual solid was analyzed by XRPD and then dried under vacuum at ambient temperature (ca. 20° C.) for 72 h, prior to re-analysis by XRPD. The results are shown in FIG. 45. • The pH of the mother liquor was measured. • The mother liquors were analyzed by HPLC for purity and concentration.

[2] = Spectrometric (UV-metric) pKa; conditions: base; aqueous value by Yasuda-Shedlovsky extrapolation from methanol-water co-solvent; 25.0±0.2° C.; 0.15 M KCl
Method: (§1) Crystalline forms of the compound of Formula I, including the crystalline Form I, were analyzed using pKa and LogP. An automated titrator system with an incorporated UV-Vis spectrometer (SiriusT3™, Pion Inc.) was used to acquire the spectrometric and potentiometric data. The optical system consisted of a photodiode array detector with a deuterium lamp and a fiber optic dip probe.
(§2) The titrator module consisted of a temperature controller (by Peltier device with in-situ thermocouple), pH electrode, an overhead stirrer, and motorized dispensers for the automatic delivery of assay titrants and reagents via capillaries. The instrumentation was operated using SiriusT3Control software (V2.0). Data processing and generation of the reported pKa and logP values was carried out using SiriusT3Refine software (V2.0). The titrants used were 0.5 M hydrochloric acid and 0.5 M potassium hydroxide, standardized using potassium hydrogen phthalate. ACS or HPLC grade methanol cosolvent was used for pKa determination. Spectrophotometric experiments were carried out in the presence of a mid-range buffer solution (15 mM di-potassium hydrogen orthophosphate) or Neutral Linear Buffer™ to prevent uncontrolled pH-drift at mid-range pH. For logP assays, ACS or HPLC grade 1-octanol was used as the partition solvent.
All experiments were carried out at a controlled temperature of 25.0±0.2° C. […]

[3] = Potentiometric (pH-metric) LogP and logD profile; conditions: for logP: 25.0±0.2° C.
Method: as §1, §2
All experiments were carried out at a controlled temperature of 25.0±0.2° C. The pH range of titration assays is set between pH 2.0 to pH 12.0 unless otherwise stated. Prior to use, 0.5 M KOH base titrant is standardized by the titration of approximately 15 mg of potassium hydrogen phthalate, in triplicate. 0.5 M HCl titrant is subsequently standardized against the base titrant. The assay media for pKa determination is kept at a constant ionic strength of 0.15 M KCl and under argon atmosphere.
0.79 mg of sample was weighed into a 5 mL glass assay vial and titrated in a pH-metric triple titration in the presence of octanol from pH 2.0-12.0 at concentrations of 1.5-0.5 mM. The partition ratios of octanol/water were 0.012:1, 0.038:1 and 0.517:1. LogP was determined by comparing the pKa in water with the apparent pKa in the presence of octanol. The pH-metric logP experiment was conducted at 25.0±0.2° C. A lipophilicity profile (logD vs. pH) of the compound was calculated from the experimentally determined pKa and logP. The logD values are detailed in Table 12.

[4] = 14-day stability testing (XRPD, HPLC, appearance); parameters: key to XRPD after storage: CRY: Crystalline; conditions: 14 days; for Post-Storage Observations (appearance): input White solid (NE12); for 14-Day Stability, Solid Purity after storage: open vial, input 98.9% area
Method: Crystalline forms of the compound of Formula I, including the crystalline Form I, were analyzed regarding stability. Approximately 10 mg of free base Form I was subjected to 14-day stability testing under the following conditions to assess developability: • 40° C./75% RH (open vial); • Ambient light, temperature and humidity conditions (open vial).
After 2 weeks under the specified conditions, XRPD and HPLC analysis was carried out on the resultant solid material. The sample appearance was monitored over 14 days.

- XRPD of residual solid, Dry ([1]; after slurrying in water and drying under vacuum 72 h): CRY
- XRPD of residual solid, Wet ([1]; after slurrying in water at 20° C. for 24 h): CRY
- solubility at 24 h ([1]; thermodynamic from solid, deionized water, 20° C., slurry stirred 24 h, HPLC, mother liquor pH 6.84, read-out: Aqueous Solubility (solution concentration)): 97 µg/mL (≈ 193 µM)
- Form after slurrying in water (XRPD) ([1]; water, 20° C., and after drying): retained
- pKa [2]: 7.74 ± 0.04
- logD ([3]; 1-octanol/water, pH 5.000): 1.2
- logP ([3]; octanol/water, read-out: LogP (Potentiometric), cationic species): 0.6 ± 0.03
- logP ([3]; octanol/water, read-out: LogP (Potentiometric), neutral species): 3.81 ± 0.02
- logD ([3]; octanol/water, pH 1.2, pH 1.200, Stomach pH): 0.6
- logD ([3]; octanol/water, pH 6.5, pH 6.500): 2.55
- logD ([3]; octanol/water, pH 7.4, pH 7.400, Blood pH): 3.31
- logD ([3]; octanol/water, pH 1.000): 0.6
- logD ([3]; octanol/water, pH 3.000): 0.61
- logD ([3]; octanol/water, pH 4.000): 0.71
- logD ([3]; octanol/water, pH 6.000): 2.08
- logD ([3]; octanol/water, pH 7.000): 3
- logD ([3]; octanol/water, pH 8.000): 3.62
- logD ([3]; octanol/water, pH 9.000): 3.79
- logD ([3]; octanol/water, pH 10.000): 3.81
- logD ([3]; octanol/water, pH 11.000): 3.81
- logD ([3]; octanol/water, pH 12.000): 3.81
- Decrease in purity after storage (HPLC) ([4]; 40° C./75% RH and ambient conditions): ≤ 0.3 % area
- 14-Day Stability, form by XRPD ([4]; 40° C./75% RH): retained; also recorded: Form I
- XRPD after storage ([4]; 40° C./75% RH): CRY
- Post-Storage Observations (appearance) ([4]; 40° C./75% RH): White solid (NE12)
- 14-Day Stability, Solid Purity after storage ([4]; 40° C./75% RH): 99.0 % area
- 14-Day Stability, Solid Purity after storage ([4]; Ambient light, temperature and humidity): 98.6 % area
- 14-Day Stability, form by XRPD ([4]; Ambient): retained; also recorded: Form I
- XRPD after storage ([4]; Ambient): CRY
- Post-Storage Observations (appearance) ([4]; Ambient): White solid (NE12)
Compound: COCCOc1cccc([C@@H]2CCN(CCn3cccc3)[C@H](C)[C@H]2COc2ccc3c(c2)C(=O)NC3)c1 [crystalline Form I, (−)-6-{[(trans, trans)-4-[3-(2-methoxyethoxy)phenyl]-2-methyl-1-[2-(1H-pyrrol-1-yl)ethyl]piperidin-3-yl]methoxy}-2,3-dihydro-1H-isoindol-1-one]
